Measurements taken from BindingDB's records for doi:10.1124/jpet.104.081257 (Abbott Laboratories, 2005).

Tests used:
[1] = target: Estrogen receptor beta (Homo sapiens, UniProt Q92731)
[2] = target: T1, Estrogen receptor (Rattus norvegicus, UniProt P06211)
T1 sequence (P06211 whole entry): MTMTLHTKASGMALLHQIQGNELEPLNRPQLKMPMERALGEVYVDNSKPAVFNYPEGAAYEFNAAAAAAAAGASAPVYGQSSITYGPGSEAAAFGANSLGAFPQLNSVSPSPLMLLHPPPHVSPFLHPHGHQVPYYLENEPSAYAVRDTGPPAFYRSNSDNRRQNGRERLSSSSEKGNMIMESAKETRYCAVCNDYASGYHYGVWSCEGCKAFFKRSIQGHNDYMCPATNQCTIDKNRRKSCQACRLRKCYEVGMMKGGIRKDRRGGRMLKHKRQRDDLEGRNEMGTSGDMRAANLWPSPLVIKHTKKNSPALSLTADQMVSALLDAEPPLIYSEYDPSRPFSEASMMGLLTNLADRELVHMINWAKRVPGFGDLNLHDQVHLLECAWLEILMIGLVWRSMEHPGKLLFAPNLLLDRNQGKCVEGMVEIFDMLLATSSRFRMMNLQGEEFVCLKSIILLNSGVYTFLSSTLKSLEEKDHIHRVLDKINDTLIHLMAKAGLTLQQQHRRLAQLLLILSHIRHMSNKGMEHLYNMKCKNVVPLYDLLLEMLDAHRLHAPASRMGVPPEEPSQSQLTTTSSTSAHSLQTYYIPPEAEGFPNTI

[3] = target: T2, Glucocorticoid receptor (Rattus norvegicus, UniProt P06536)
T2 sequence (P06536 whole entry): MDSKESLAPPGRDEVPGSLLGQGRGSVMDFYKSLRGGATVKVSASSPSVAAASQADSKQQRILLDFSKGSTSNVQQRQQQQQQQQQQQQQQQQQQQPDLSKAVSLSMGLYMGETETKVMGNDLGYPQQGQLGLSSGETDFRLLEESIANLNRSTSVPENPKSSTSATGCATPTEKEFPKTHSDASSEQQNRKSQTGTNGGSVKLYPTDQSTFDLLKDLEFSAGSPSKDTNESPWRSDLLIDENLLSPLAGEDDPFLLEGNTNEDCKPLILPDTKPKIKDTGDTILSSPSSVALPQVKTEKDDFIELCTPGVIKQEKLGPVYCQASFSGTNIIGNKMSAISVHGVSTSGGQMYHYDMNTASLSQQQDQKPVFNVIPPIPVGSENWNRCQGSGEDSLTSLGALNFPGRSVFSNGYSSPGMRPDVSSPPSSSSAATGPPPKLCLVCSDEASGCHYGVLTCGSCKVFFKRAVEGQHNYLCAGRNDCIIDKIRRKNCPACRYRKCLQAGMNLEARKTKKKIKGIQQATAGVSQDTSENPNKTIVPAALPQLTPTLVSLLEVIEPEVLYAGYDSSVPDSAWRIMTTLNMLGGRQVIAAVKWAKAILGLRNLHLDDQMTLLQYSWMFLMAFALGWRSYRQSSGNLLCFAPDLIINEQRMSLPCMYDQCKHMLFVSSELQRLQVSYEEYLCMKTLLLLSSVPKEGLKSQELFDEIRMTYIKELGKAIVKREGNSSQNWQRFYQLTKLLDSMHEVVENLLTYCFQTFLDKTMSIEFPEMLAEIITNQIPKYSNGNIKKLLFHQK

[4] = target: T3, Mineralocorticoid receptor (Rattus norvegicus, UniProt P22199)
T3 sequence (P22199 whole entry): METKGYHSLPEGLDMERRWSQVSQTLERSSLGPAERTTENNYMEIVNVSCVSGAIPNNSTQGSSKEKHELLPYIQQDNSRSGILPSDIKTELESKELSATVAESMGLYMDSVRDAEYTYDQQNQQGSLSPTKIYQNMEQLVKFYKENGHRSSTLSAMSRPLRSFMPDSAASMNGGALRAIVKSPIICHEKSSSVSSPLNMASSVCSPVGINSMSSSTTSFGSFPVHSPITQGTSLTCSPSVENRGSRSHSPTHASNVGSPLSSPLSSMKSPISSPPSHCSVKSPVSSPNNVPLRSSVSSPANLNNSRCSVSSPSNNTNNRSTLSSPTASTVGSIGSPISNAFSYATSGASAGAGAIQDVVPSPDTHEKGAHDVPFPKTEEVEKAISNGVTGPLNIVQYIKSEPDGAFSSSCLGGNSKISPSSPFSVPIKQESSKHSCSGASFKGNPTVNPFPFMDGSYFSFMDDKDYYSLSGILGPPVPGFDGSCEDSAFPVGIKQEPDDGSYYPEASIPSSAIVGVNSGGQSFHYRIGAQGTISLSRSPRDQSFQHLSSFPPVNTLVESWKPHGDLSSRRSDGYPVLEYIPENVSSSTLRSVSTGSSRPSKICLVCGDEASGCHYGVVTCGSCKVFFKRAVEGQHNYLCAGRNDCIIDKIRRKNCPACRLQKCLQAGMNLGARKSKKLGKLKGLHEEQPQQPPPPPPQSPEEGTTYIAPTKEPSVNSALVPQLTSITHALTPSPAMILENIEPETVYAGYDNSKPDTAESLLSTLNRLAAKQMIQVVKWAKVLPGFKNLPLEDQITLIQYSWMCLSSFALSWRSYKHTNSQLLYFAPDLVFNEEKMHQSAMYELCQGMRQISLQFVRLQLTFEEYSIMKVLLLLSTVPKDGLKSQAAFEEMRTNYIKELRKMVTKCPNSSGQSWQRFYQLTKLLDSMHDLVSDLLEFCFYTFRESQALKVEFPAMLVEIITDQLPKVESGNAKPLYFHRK

[5] = target: T4, Thyroid hormone receptor alpha (Rattus norvegicus, UniProt P63059)
T4 sequence (P63059 whole entry): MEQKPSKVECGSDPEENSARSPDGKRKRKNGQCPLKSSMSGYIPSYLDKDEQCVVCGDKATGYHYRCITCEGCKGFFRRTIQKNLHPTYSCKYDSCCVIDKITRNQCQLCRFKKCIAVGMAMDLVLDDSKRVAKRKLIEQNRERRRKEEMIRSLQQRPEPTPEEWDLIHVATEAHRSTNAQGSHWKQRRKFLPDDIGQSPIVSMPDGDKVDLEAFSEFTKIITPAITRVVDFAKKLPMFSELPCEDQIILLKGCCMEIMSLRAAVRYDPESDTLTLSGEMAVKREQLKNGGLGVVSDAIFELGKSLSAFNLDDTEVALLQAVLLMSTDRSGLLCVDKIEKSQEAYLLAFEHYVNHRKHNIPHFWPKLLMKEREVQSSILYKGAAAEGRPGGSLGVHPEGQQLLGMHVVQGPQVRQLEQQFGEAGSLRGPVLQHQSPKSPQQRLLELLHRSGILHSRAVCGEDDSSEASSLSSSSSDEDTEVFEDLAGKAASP

[6] = target: T5, Thyroid hormone receptor beta (Rattus norvegicus, UniProt P18113)
T5 sequence (P18113 whole entry): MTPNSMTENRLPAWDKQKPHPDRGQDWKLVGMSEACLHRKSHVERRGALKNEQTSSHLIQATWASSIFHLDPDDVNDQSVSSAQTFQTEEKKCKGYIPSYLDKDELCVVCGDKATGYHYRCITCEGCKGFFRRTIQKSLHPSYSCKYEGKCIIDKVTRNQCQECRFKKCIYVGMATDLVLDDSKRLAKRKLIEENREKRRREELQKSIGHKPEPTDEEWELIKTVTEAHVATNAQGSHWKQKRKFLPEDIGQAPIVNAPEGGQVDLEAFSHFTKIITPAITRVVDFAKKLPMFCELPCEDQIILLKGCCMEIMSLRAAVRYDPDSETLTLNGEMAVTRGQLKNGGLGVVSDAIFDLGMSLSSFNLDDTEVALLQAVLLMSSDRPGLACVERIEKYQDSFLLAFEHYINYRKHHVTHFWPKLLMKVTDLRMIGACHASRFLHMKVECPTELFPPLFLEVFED

[7] = target: Progesterone receptor (Homo sapiens) (UniProt P06401)
Chain of Progesterone receptor (Homo sapiens) (P06401 whole entry, looked up): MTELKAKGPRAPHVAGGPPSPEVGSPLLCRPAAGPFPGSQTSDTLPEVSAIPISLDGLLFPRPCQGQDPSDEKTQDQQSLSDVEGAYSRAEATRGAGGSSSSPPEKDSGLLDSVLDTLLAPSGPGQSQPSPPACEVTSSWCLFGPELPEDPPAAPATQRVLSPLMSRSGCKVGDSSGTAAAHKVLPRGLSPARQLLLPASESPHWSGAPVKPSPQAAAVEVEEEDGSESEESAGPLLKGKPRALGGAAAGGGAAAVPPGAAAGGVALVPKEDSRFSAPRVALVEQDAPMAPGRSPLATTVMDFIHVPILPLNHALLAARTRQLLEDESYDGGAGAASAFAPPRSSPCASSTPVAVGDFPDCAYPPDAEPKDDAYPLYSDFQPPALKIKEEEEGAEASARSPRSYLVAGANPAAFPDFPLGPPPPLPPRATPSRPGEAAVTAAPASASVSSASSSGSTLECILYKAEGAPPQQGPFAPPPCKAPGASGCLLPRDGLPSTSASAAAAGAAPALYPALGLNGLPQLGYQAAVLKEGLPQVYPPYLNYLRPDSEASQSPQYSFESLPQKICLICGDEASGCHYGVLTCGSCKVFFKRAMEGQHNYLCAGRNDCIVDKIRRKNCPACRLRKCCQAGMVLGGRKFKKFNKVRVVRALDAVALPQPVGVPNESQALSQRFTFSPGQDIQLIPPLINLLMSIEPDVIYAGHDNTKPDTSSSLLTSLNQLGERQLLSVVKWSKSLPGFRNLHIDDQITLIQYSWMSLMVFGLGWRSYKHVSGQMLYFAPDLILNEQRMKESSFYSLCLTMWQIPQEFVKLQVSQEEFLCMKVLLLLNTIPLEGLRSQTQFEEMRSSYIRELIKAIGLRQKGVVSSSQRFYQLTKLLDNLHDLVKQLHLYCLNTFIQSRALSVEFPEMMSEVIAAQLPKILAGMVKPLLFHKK

Chain of Estrogen receptor beta (Q92731 whole entry): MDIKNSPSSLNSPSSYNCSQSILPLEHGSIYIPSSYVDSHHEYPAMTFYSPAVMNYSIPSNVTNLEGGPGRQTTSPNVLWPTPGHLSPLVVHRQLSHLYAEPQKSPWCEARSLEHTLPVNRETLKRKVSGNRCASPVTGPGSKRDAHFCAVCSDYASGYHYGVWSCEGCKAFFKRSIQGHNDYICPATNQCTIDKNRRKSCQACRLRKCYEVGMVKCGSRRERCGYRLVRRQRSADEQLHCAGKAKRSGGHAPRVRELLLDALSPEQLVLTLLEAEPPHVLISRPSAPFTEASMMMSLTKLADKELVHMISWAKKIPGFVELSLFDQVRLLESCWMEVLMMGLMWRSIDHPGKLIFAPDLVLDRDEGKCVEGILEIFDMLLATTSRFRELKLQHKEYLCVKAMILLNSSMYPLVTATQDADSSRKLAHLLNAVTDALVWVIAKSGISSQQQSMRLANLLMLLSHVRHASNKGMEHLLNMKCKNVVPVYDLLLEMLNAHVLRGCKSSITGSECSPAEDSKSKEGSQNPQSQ

| Structure (SMILES) | Ki [1] | Ki [2] | Ki [3] | Ki [4] | Ki [5] | Ki [6] | Ki [7] |
| --- | --- | --- | --- | --- | --- | --- | --- |
| CC#C[C@]1(O)CC[C@H]2[C@@H]3CCC4=CC(=O)CCC4=C3[C@@H](c3ccc(N(C)CCO[C@H]4CCC5C(C4)C[C@@H](O)C4C5C[C@H](O)C5C(C(C)CCC(=O)O)CCC45)cc3)C[C@@]21C (stereo partly specified) [A-348441] | 110 nM | 12 nM | 0.27 nM | 440 nM | 670 nM | 1500 nM | 0.81 nM |
| CC#C[C@]1(O)CC[C@H]2[C@@H]3CCC4=CC(=O)CCC4=C3[C@@H](c3ccc(N(C)C)cc3)C[C@@]21C [CAS_84371-65-3] |  | > 200 nM |  | 640 nM | > 1250 nM | > 2250 nM |  |
